Here are results for 17 molecules from PubChem BioAssay AID248 (DTP/NCI, 2004).

“And” between values parts separate entries of the source, which are not always exact repeats. Equal values may be shown once. Toxic doses and inconclusive results are not listed. Square brackets hold non-standard residues; d marks the D form. Peptide text beside a SMILES is read from it. * marks the point of attachment. ξ: configuration not given here. Octanoyl = CCCCCCCC(=O)*; OBn = c1ccc(CO*)cc1; ξP = O=C(O)C1CCCN1

This test concerns L1210 leukemia ip in BDF1 mice, survival T/C. In words: NCI In Vivo Anticancer Drug Screen. Data for tumor model L1210 Leukemia (intraperitoneal) in B6D2F1 (BDF1) mice. Particulars: endpoint: mean survival time, higher = longer survival. In short, it runs like this:
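Tumor cells were implanted, animals were treated, and survival was followed. The result divides the treated measurement by the vehicle-control measurement.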

Where [1] appears, read: dose: 100.0 mg/kg/injection, schedule: Q01DX009 (ip), vehicle: saline with Tween-80.
The mark [2] stands for this setting: dose: 100.0 mg/kg/injection, schedule: Q04DX003 (ip), vehicle: saline with Tween-80.
Where [3] appears, read: dose: 200.0 mg/kg/injection, schedule: Q01DX009 (ip), vehicle: saline with Tween-80.
Setting [4] is: dose: 200.0 mg/kg/injection, schedule: Q04DX003 (ip), vehicle: saline with Tween-80.
The mark [5] stands for this setting: dose: 400.0 mg/kg/injection, schedule: Q04DX003 (ip), vehicle: saline with Tween-80.
Where [6] appears, read: dose: 6.25 mg/kg/injection, schedule: Q01DX009 (ip), vehicle: saline with Tween-80.
[7] abbreviates: dose: 25.0 mg/kg/injection, schedule: Q01DX009 (ip), vehicle: saline with Tween-80.
Setting [8] is: dose: 100.0 mg/kg/injection, schedule: Q04DX002 (ip), vehicle: saline with Tween-80.
Setting [9] is: dose: 200.0 mg/kg/injection, schedule: Q04DX002 (ip), vehicle: saline with Tween-80.
Setting [10] is: dose: 400.0 mg/kg/injection, schedule: Q04DX002 (ip), vehicle: saline with Tween-80.
Where [11] appears, read: dose: 100.0 mg/kg/injection, schedule: Q04DX002 (ip), vehicle: Klucel (hydroxypropylcellulose) (HPC).
The mark [12] stands for this setting: dose: 200.0 mg/kg/injection, schedule: Q04DX002 (ip), vehicle: Klucel (hydroxypropylcellulose) (HPC).
The mark [13] stands for this setting: dose: 400.0 mg/kg/injection, schedule: Q04DX002 (ip), vehicle: Klucel (hydroxypropylcellulose) (HPC).

`COc1cc(C(=O)N2CCOC23CCN(Cc2ccccc2)CC3)cc(OC)c1OC`: the T/C runs as follows: under setting [1], 95 % of control; under setting [2], 102 % of control; under setting [3], 90 % of control; under setting [4], 100 % of control; under setting [5], 100 % of control.
As for `CCCNC(=O)c1cc(NC(=O)Nc2ccc(C3=NCCCN3)cc2)cc(NC(=O)Nc2ccc(C3=NCCCN3)cc2)c1`, the T/C is, setting by setting: (dose: 21.0 mg/kg/injection, schedule: Q01DX Z (ip), vehicle: carboxymethylcellulose (CMC)) 115 % of control; (dose: 42.0 mg/kg/injection, schedule: Q01DX Z (ip), vehicle: carboxymethylcellulose (CMC)) 113 % of control; (dose: 84.0 mg/kg/injection, schedule: Q01DX Z (ip), vehicle: carboxymethylcellulose (CMC)) 117 % of control.
On to `CC(C)(C)C(=O)OCn1cnc(C#N)c1[N+](=O)[O-]`, for which the T/C by setting is: (dose: 100.0 mg/kg/injection, schedule: Q01DX001 (ip), vehicle: acetone) 92 % of control; (dose: 200.0 mg/kg/injection, schedule: Q01DX001 (ip), vehicle: acetone) 101 % of control; (dose: 400.0 mg/kg/injection, schedule: Q01DX001 (ip), vehicle: acetone) 92 % of control.
With `CCCCC(=O)N(c1ccc(Nc2c3ccccc3nc3cc([N+](=O)[O-])ccc23)cc1)S(C)(=O)=O`, the T/C (dose: 3.18 mg/kg/injection, schedule: Q01DX009 (sc), vehicle: saline) was 119 % of control; the T/C under setting [6] is 160 % of control; the T/C (dose: 16.5 mg/kg/injection, schedule: Q04DX003 (ip), vehicle: saline with Tween-80) was 150 % of control; the T/C under setting [7] was 95 % of control; the T/C (dose: 25.0 mg/kg/injection, schedule: Q01DX009 (sc), vehicle: saline) is 179 % of control; the T/C (dose: 25.0 mg/kg/injection, schedule: Q04DX003 (ip), vehicle: saline with Tween-80) was 153 % of control. The T/C (dose: 44.0 mg/kg/injection, schedule: Q04DX003 (ip), vehicle: saline) is 168 % of control; the T/C (dose: 50.0 mg/kg/injection, schedule: Q04DX003 (ip), vehicle: saline with Tween-80) was 242 % of control; the T/C (dose: 67.0 mg/kg/injection, schedule: Q04DX003 (ip), vehicle: saline) was 92 % of control; the T/C under setting [2] was 188 % of control; the T/C (dose: 100.0 mg/kg/injection, schedule: Q04DX003 (ip), vehicle: saline) was 103 % of control; the T/C under setting [4] was 100 % of control.
On to `C[n+]1ccc2ccccc2c1CCCc1nccc2ccccc12`, for which the T/C is, setting by setting: under setting [6], 111 % of control; (dose: 6.25 mg/kg/injection, schedule: Q04DX003 (ip), vehicle: saline) 97 % of control; (dose: 12.5 mg/kg/injection, schedule: Q01DX009 (ip), vehicle: saline with Tween-80) 117 % of control; (dose: 12.5 mg/kg/injection, schedule: Q04DX003 (ip), vehicle: saline) 100 % of control; under setting [7], 112 % of control; (dose: 25.0 mg/kg/injection, schedule: Q04DX003 (ip), vehicle: saline) 114 % of control.
Turning to `CCCOP(=S)(N1CC1)N1CC1`, the T/C (dose: 44.0 mg/kg/injection, schedule: Q01DX001 (ip), vehicle: saline) was 114 % of control.
`O=S(O)c1ccc2cc(O)c(S(=O)O)cc2c1`: the T/C (dose: 100.0 mg/kg/injection, schedule: Q01DX001 (ip), vehicle: saline) is 95 % of control; the T/C under setting [1] was 95 % of control; the T/C (dose: 200.0 mg/kg/injection, schedule: Q01DX001 (ip), vehicle: saline) is 97 % of control; the T/C under setting [3] is 95 % of control; the T/C (dose: 400.0 mg/kg/injection, schedule: Q01DX001 (ip), vehicle: saline) was 97 % of control; the T/C (dose: 400.0 mg/kg/injection, schedule: Q01DX009 (ip), vehicle: saline with Tween-80) is 92 % of control.
In the case of `Cc1ccccc1NC(=O)CC#N`, the T/C under setting [8] was 90 % of control, the T/C under setting [9] was 101 % of control and the T/C under setting [10] was 94 % of control.
For `Clc1ccc(OCCOc2ccc(Cl)cc2)cc1`, the T/C by setting is: under setting [2], 95 % of control; under setting [4], 92 % of control; under setting [5], 106 % of control.
`CCCCN(C)N=Nc1ccc(CCC(=O)NN)cc1`: the T/C is 107 % of control (dose: 33.0 mg/kg/injection, schedule: Q01DX009 (ip), vehicle: carboxymethylcellulose (CMC)) and 101 % of control (dose: 50.0 mg/kg/injection, schedule: Q01DX009 (ip), vehicle: carboxymethylcellulose (CMC)).
For `O=c1[nH]n(-c2ccccc2)c(=O)c2ccccc12`, the T/C was 110 % of control and 102 % of control (dose: 100.0 mg/kg/injection, schedule: Q01DX001 (ip), vehicle: Klucel (hydroxypropylcellulose) (HPC)); 100 % of control and 94 % of control (dose: 200.0 mg/kg/injection, schedule: Q01DX001 (ip), vehicle: Klucel (hydroxypropylcellulose) (HPC)); 100 % of control and 104 % of control (dose: 400.0 mg/kg/injection, schedule: Q01DX001 (ip), vehicle: Klucel (hydroxypropylcellulose) (HPC)).
Take `CCCCCCCCCCCc1n(Cc2ccccc2)cc[n+]1C`: the T/C was 101 % of control (dose: 0.5 mg/kg/injection, schedule: Q01DX001 (ip), vehicle: saline); 111 % of control (dose: 0.5 mg/kg/injection, schedule: Q01DX009 (ip), vehicle: acetone); 95 % of control (dose: 1.0 mg/kg/injection, schedule: Q01DX001 (ip), vehicle: saline); 118 % of control (dose: 1.0 mg/kg/injection, schedule: Q01DX009 (ip), vehicle: acetone); 101 % of control (dose: 2.0 mg/kg/injection, schedule: Q01DX001 (ip), vehicle: saline); 95 % of control (dose: 2.0 mg/kg/injection, schedule: Q04DX003 (ip), vehicle: saline). Moreover, the T/C (dose: 8.0 mg/kg/injection, schedule: Q01DX001 (ip), vehicle: saline) was 103 % of control.
`O=S1(=O)C=CC1`: under “dose: 50.0 mg/kg/injection, schedule: Q01DX001 (ip), vehicle: saline”, the T/C is 115 % of control.
For the molecule `O=C(O)c1cc(Cl)cc(I)c1Br`, the T/C runs as follows: (dose: 75.0 mg/kg/injection, schedule: Q04DX002 (ip), vehicle: Klucel (hydroxypropylcellulose) (HPC)) 100 % of control; under setting [11], 94 % of control; (dose: 150.0 mg/kg/injection, schedule: Q04DX002 (ip), vehicle: Klucel (hydroxypropylcellulose) (HPC)) 96 % of control; under setting [12], 105 % of control; (dose: 300.0 mg/kg/injection, schedule: Q04DX002 (ip), vehicle: Klucel (hydroxypropylcellulose) (HPC)) 100 % of control; under setting [13], 105 % of control.
For `CCCCCCCC(=O)N1CCCC1C(=O)NCC(=O)NCC(=O)OCc1ccccc1` (stereo not drawn) (Octanoyl-[ξP]-Gly-Gly-OBn), the T/C by setting is: under setting [11], 94 % of control; under setting [12], 86 % of control; under setting [13], 105 % of control.
Consider `COC(=O)C1=NNCC1C(=O)N1Cc2cc3ccccc3nc2C1` (configuration not stated), for which the T/C is 103 % of control (dose: 10.0 mg/kg/injection, schedule: Q04DX003 (ip), vehicle: saline); 99 % of control (dose: 20.0 mg/kg/injection, schedule: Q04DX003 (ip), vehicle: saline); 103 % of control (dose: 40.0 mg/kg/injection, schedule: Q04DX003 (ip), vehicle: saline); 92 % of control (dose: 80.0 mg/kg/injection, schedule: Q04DX003 (ip), vehicle: saline); 97 % of control (dose: 160.0 mg/kg/injection, schedule: Q04DX003 (ip), vehicle: saline).
As to `COc1ccc(NC(=S)Nc2ccc(Cc3ccc(NC(=S)Nc4ccc(OC)cc4)cc3)cc2)cc1`, the T/C under setting [8] was 101 % of control, the T/C under setting [9] is 95 % of control and the T/C under setting [10] was 88 % of control.
